Among the test systems are HCT-116 colon; IGROV1 ovarian; HOP-62 NSCLC; A498 renal; OVCAR-5 ovarian; 786-0 renal; SK-MEL-28 melanoma; A549 NSCLC; SK-OV-3 ovarian; MALME-3M melanoma; NCI-H460 lung; UACC-257 melanoma.
Common to all, as to assay: inhibition of tumour cell growth, NCI panel, 48 h

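Method: 48-hour compound exposure of cells in 96-well plates, five concentrations, linear interpolation of endpoints. TGI is the concentration that stops growth completely.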

On to `C=C(Br)C(Cl)(CBr)CCC(Br)C(C)(C)Cl` (stereo not drawn), for which the TGI in the assay on HCT-116 colon, in the assay with IGROV1 ovarian, in the assay with HOP-62 NSCLC, in the assay on A498 renal, in the assay on OVCAR-5 ovarian and with 786-0 renal was > 10 µM each time. Moreover, the TGI with SK-MEL-28 melanoma, in the assay on A549 NSCLC and in the assay with SK-OV-3 ovarian was > 10 µM in each case.
Take `O=C(CN=C(CN(c1ccccc1)c1ccccc1)Oc1c([N+](=O)[O-])cc([N+](=O)[O-])cc1[N+](=O)[O-])N1CCNCC1`: the TGI in the assay on HCT-116 colon, with IGROV1 ovarian, in the assay with HOP-62 NSCLC, in the assay with MALME-3M melanoma, in the assay on OVCAR-5 ovarian and with 786-0 renal was > 100 µM each time. Further, the TGI in the assay on SK-MEL-28 melanoma, in the assay with NCI-H460 lung, in the assay with A549 NSCLC, with UACC-257 melanoma and with SK-OV-3 ovarian was > 100 µM throughout.
As to `CCOC(=O)/C=C/[C@H](O[Si](c1ccccc1)(c1ccccc1)c1ccccc1)C(C)(C)C`, the TGI in the assay with HCT-116 colon, in the assay on IGROV1 ovarian, with HOP-62 NSCLC, with MALME-3M melanoma, with A498 renal and in the assay on 786-0 renal was > 31.6 µM in each case. Besides, the TGI with A549 NSCLC, with UACC-257 melanoma and in the assay on SK-OV-3 ovarian was > 31.6 µM throughout.
On to `O=C(NCCCCNCCCNC(=O)C(F)(F)F)C(F)(F)F`, for which the TGI in the assay on HCT-116 colon, with IGROV1 ovarian, with HOP-62 NSCLC, in the assay on A498 renal, in the assay with OVCAR-5 ovarian and with 786-0 renal was > 100 µM throughout. Also, the TGI with SK-MEL-28 melanoma is > 100 µM; in the assay with NCI-H460 lung, > 100 µM; with A549 NSCLC, > 100 µM; with UACC-257 melanoma, > 100 µM; in the assay on SK-OV-3 ovarian, 65.5 µM.
In the case of `Cn1c2ccccc2n2c3ccccc3c(=S)c(C#N)c12`, the TGI with HCT-116 colon, in the assay with IGROV1 ovarian, in the assay with HOP-62 NSCLC, with A498 renal, in the assay on OVCAR-5 ovarian and in the assay on 786-0 renal was > 100 µM each time. The TGI in the assay on SK-MEL-28 melanoma, in the assay on NCI-H460 lung, in the assay on A549 NSCLC, in the assay on UACC-257 melanoma and with SK-OV-3 ovarian was > 100 µM throughout.
For `COC(=O)[C@H]1ON2O[C@@H](O[C@H]3CCCC[C@@H]3C(C)(C)c3ccccc3)C[C@@H]3CC[C@H]1[C@@]32C`, the TGI with HCT-116 colon, in the assay on IGROV1 ovarian, with HOP-62 NSCLC, with A498 renal, in the assay on OVCAR-5 ovarian and in the assay on 786-0 renal was > 100 µM each time. Besides, the TGI in the assay with NCI-H460 lung, with A549 NSCLC, in the assay with UACC-257 melanoma and in the assay with SK-OV-3 ovarian was > 100 µM each time.
Take `CCOP(=O)(OCC)C(Cc1ccccc1)N=C(c1ccccc1)c1ccccc1` (stereo not drawn): the TGI with HCT-116 colon came out at 30.8 µM; in the assay on IGROV1 ovarian, 26.8 µM; with HOP-62 NSCLC, 35.2 µM; in the assay with MALME-3M melanoma, 40.9 µM; in the assay with OVCAR-5 ovarian, 28.1 µM; with 786-0 renal, 30.2 µM. Also, the TGI in the assay on SK-MEL-28 melanoma was determined as 31.3 µM; in the assay on NCI-H460 lung, 31.9 µM; with A549 NSCLC, 24.2 µM; with UACC-257 melanoma, 27.1 µM; in the assay with SK-OV-3 ovarian it was 28.5 µM.
Take `c1ccc(-c2cc(-c3cc(-c4ccccc4)n[nH]3)[nH]n2)cc1`: the TGI in the assay with HCT-116 colon, with IGROV1 ovarian, in the assay on HOP-62 NSCLC, with MALME-3M melanoma, in the assay on A498 renal and in the assay on OVCAR-5 ovarian was > 100 µM in each case. The TGI with 786-0 renal, with NCI-H460 lung, with A549 NSCLC, in the assay on UACC-257 melanoma and in the assay with SK-OV-3 ovarian was > 100 µM throughout.
Take `COc1cc(/C=C/C(=O)O)ccc1O`: the TGI with HCT-116 colon, in the assay on IGROV1 ovarian, in the assay with HOP-62 NSCLC, with MALME-3M melanoma, in the assay with OVCAR-5 ovarian and with 786-0 renal was > 100 µM throughout. In addition, the TGI in the assay with SK-MEL-28 melanoma, in the assay on NCI-H460 lung, in the assay on A549 NSCLC and in the assay with UACC-257 melanoma was > 100 µM each time.
For the compound `Cc1cc2nc3c(C(O)CO)nn(-c4ccccc4)c3nc2cc1C` (stereo not drawn), the TGI in the assay with HCT-116 colon was 36.6 µM; in the assay on IGROV1 ovarian, 43.9 µM; with HOP-62 NSCLC, 44 µM; in the assay on A498 renal, 34.9 µM; in the assay on OVCAR-5 ovarian, 44.9 µM; in the assay on 786-0 renal it was 42.8 µM. The TGI in the assay with SK-MEL-28 melanoma turned out to be 42 µM; in the assay with NCI-H460 lung, 37.4 µM; with A549 NSCLC, 48.5 µM; in the assay with UACC-257 melanoma, 48.1 µM.
For `COc1ccc(NC(C)=O)c(C(=O)CCNC(C)=O)c1`, the TGI in the assay on HCT-116 colon, in the assay with IGROV1 ovarian, in the assay on A498 renal, with OVCAR-5 ovarian, with 786-0 renal and in the assay with NCI-H460 lung was > 100 µM each time. Further, the TGI in the assay on A549 NSCLC, in the assay on UACC-257 melanoma and in the assay on SK-OV-3 ovarian was > 100 µM throughout.
In the case of `CC(C)(C)OC(=O)/C=C/C(=O)O/C=C/[N+](=O)[O-]`, the TGI in the assay on HCT-116 colon, in the assay on IGROV1 ovarian, with HOP-62 NSCLC, in the assay on A498 renal, with OVCAR-5 ovarian and in the assay with 786-0 renal was > 100 µM throughout. Besides, the TGI with NCI-H460 lung, in the assay on A549 NSCLC, in the assay with UACC-257 melanoma and in the assay on SK-OV-3 ovarian was > 100 µM throughout.
Consider `O=C(/C=C/c1ccc(Cl)c(Cl)c1)CCN1CCN(CCC(=O)/C=C/c2ccc(Cl)c(Cl)c2)CC1`, for which the TGI in the assay with HCT-116 colon is 23.8 µM; with IGROV1 ovarian, 49 µM; with HOP-62 NSCLC, 60.6 µM; in the assay on A498 renal it was > 100 µM; in the assay with OVCAR-5 ovarian it was 39.9 µM; with 786-0 renal, 21 µM. Also, the TGI in the assay with SK-MEL-28 melanoma was 46.3 µM; with NCI-H460 lung it was 38.5 µM; in the assay on A549 NSCLC it was > 100 µM; in the assay with UACC-257 melanoma it was > 100 µM; in the assay on SK-OV-3 ovarian, > 100 µM.

Values taken from PubChem BioAssay (NCI).
